Assays:
[1] = test system: PGE2 production from IL-1β-stimulated MG-63 cells; test: Suppressing action on PGE2 production from IL-1β-stimulated MG-63 cells; format: cell-based; conditions: Homo sapiens, IL-1β 1 ng/ml, 18 hours, read-out: PGE2 production suppression ratio
In short: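 PGE2 in 18 h supernatants was quantified by EIA and expressed as % suppression relative to IL-1β-only and unstimulated controls. Cells were the MG-63 osteosarcoma line, plated at 2×10^4/well, given compound in 0.5% FBS EMEM, then 1 ng/ml IL-1β final.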

[2] = test system: PGD2 production from IgE-stimulated RBL-2H3 cells; test: Suppressing action on PGD2 production from IgE-stimulated RBL-2H3 cells; format: cell-based; conditions: Rattus norvegicus, 10 min, IgE/DNP-BSA stimulated RBL-2H3 cells, read-out: PGD2 production suppression ratio
Excerpt: (§1) 2. Suppressing Action on PGD2 and LTB4 Production from IgE-Stimulated RBL-2H3 Cells
(§2) Suppressing action on PGD2 and LTB4 production caused by IgE as an allergic stimulant was investigated by the following method. Cells of RBL-2H3, which is a rat mastocytoma cell line (purchased from ATCC), were suspended in DEMEM medium (GIBCO) containing 10% fetal bovine serum (BioFluid), inoculated to each well of 48-well culture plate at a density of 2×10^4 cells/well and cultured overnight. Then, IgE antiserum directed to dinitrophenylated BSA (henceforth DNP-BSA) was further added to each well, and the cells were cultured for 30 minutes. Then, the medium was changed to DEMEM medium containing 0.5% fetal bovine serum, a test compound was added with each well, and DNP-BSA was further added at a final concentration of 100 ng/ml as a stimulant. Ten minutes after the stimulant was added, the culture supernatant was collected, and the PGD2 concentration and LTB4 concentration in the culture supernatant were measured by using EIA kit (CAYMAN). By using a well which was not added with the stimulant as a negative control and a well which was added only with the stimulant as a positive control, suppressing ratios on mediator production were calculated from the production amounts of the mediators in the well added with the test compound using the following equation. PGD2 or LTB4 production suppression ratio=[1−(C−B)/(A−B)]×100 • A: PGD2 or LTB4 production amount of positive control • B: PGD2 or LTB4 production amount of negative control • C: PGD2 or LTB4 production amount in well added with test compound
(§3) Further, as control compounds for comparison, reference compound (1), 3-(2-cyclohexylmethyloxy-1,1′-biphenyl-5-yl)propionic acid described in WO99/19291, reference compounds (2) and (3), [2-(5,6,7,8-tetrahydro-5,5,8,8-tetramethyl-2-naphthalenyl)methyloxy-1,1′-biphenyl-5-yl]carboxylic acid [reference compound (2)] and 3-[3′-carboxy-2-(5,6,7,8-tetrahydro-5,5,8,8-tetramethyl-2naphthalenyl)methyloxy-1,1′-biphenyl-6-yl]propionic acid [reference compound (3)] described in U.S. Pat. No. 5,391,817 and Japanese Patent Unexamined Publication (Kokai) No. 7-22399, respectively, were used, and activities thereof were similarly measured.

[3] = test system: IgE-stimulated footpad edema; test: Mouse IgE-stimulated footpad edema reaction; format: in vivo; conditions: C57BL/6 male mice, oral 0.1 to 500 mg/kg, compared with positive control group
Method: 4. Suppressing Effect on Mouse IgE-stimulated Footpad Edema Reaction
Suppression on footpad edema caused by IgE antibody as an allergic stimulant was studied by the following method. Groups of C57BL/6 male mice (9- to 11-week old) each consisting of five mice were used for the test. Anti-DNP-BSA IgE serum was subcutaneously administered in a volume of 20 μl to right hind leg footpad of each mouse one day before the test. A test compound was suspended or dissolved in purified water containing 0.5% methylcellulose and orally administered to the test animals at 0.1 to 500 mg/0.2 ml/kg. To the control group, purified water containing 0.5% methylcellulose was administered in a similar manner, which was not added with the test compound. Two hours after the administration of the test compound, 0.2 ml of a solution of DNP-BSA dissolved in physiological saline (Otsuka Pharmaceutical) at 2.5 μg/ml was intravenously administered. The thickness of right hind leg footpad was measured by using a digital thickness gauge (MITSUTOYO) 10, 15, 20, and 30 minutes after the administration of DNP-BSA. A difference of the thickness of footpad measured above and the thickness before the administration of the test compound measured beforehand was regarded as a thickness of edema.
For the thickness of the edema at 10, 15, 20 and 30 minutes after the DNP-BSA administration, a graph was prepared indicating time in abscissa and the edema thickness in ordinate, and edema thickness AUC […] was obtained by calculation according to the following equation. Edema thickness AUC (mm·minute)=1/2×10×A+5×(A+B)/2+5×(B+C)/2+10×(C+D)/2 • A: Edema thickness 10 minutes after DNP-BSA administration • B: Edema thickness 15 minutes after DNP-BSA administration • C: Edema thickness 20 minutes after DNP-BSA administration • D: Edema thickness 30 minutes after DNP-BSA administration
A suppressing ratio on edema of a test compound was obtained by calculation in accordance with the following equation. Edema suppression ratio (%)=[1−B/A]×100 • A: Edema thickness AUC of positive control • B: Edema thickness AUC of test compound administered group (2) Measurement Results

[4] = test system: LTB4 production from IgE-stimulated RBL-2H3 cells; test: Suppressing action on LTB4 production from IgE-stimulated RBL-2H3 cells; format: cell-based; conditions: Rattus norvegicus, 10 min, IgE/DNP-BSA stimulated RBL-2H3 cells, read-out: LTB4 production suppression ratio
Excerpt: as §1, §2, §3

[5] = test system: zymosan-stimulated footpad edema; test: Mouse zymosan-stimulated footpad edema reaction; format: in vivo; conditions: ICR female mice, oral 0.1 to 500 mg/kg, compared with positive control group
In short: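 Female ICR mice (6–7 weeks, n=8) dosed orally at 0.1 to 500 mg/kg in 0.5% methylcellulose; 1 h later zymosan (1 mg/ml, 0.02 ml) injected s.c. into right hind footpad. Edema volume at 1 and 2 h gave AUC to 2 h; suppression (%) calculated against positive control AUC.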

Compound	inhibition at 0.4 µM [1] [%]	inhibition at 0.4 µM [2] [%]	suppression of footpad edema caused by IgE stimulation [3]	inhibition at 0.4 µM [4] [%]	suppression of footpad edema caused by zymosan [5]
O=C(O)CCc1ccc(OCC2CCCCC2)c(-c2ccc3cc(O)ccc3c2)c1 [Compound 002, 3-[4-cyclohexylmethyloxy-3-(6-hydroxynaphthalen-2-yl)phenyl]propionic acid]	≥ 50	≥ 50	suppressed the footpad edema	≥ 50	suppressed footpad edema
Nc1ccc2cc(-c3cc(CCC(=O)O)ccc3OCC3CCCC3)ccc2c1 [Compound 012, 3-[3-(6-aminonaphthalen-2-yl)-4-cyclopentylmethyloxyphenyl]propionic acid]	≥ 50	≥ 50	suppressed the footpad edema	≥ 50	suppressed footpad edema
Nc1ccc2ccc(-c3cc(CCC(=O)O)ccc3OCC3CCCC3)cc2c1 [Compound 014, 3-[3-(7-aminonaphthalen-2-yl)-4-cyclopentylmethyloxyphenyl]propionic acid]	≥ 50	≥ 50	suppressed the footpad edema	≥ 50	
O=C(O)CCc1ccc(OCC2CCCC2)c(-c2ccc3ccccc3c2)c1 [Compound 039, 3-[4-cyclopentylmethyloxy-3-(naphthalen-2-yl)phenyl]propionic acid]	≥ 50	≥ 50	suppressed the footpad edema	≥ 50	suppressed footpad edema
O=C(O)CCc1ccc(OC2CCCC2)c(-c2ccc3ccccc3c2)c1 [Compound 043, 3-[4-cyclopentyloxy-3-(naphthalen-2-yl)phenyl]propionic acid]	≥ 50	≥ 50	suppressed the footpad edema	≥ 50	suppressed footpad edema
O=C(O)CCc1ccc(OCCC2CCCC2)c(-c2ccc3ccccc3c2)c1 [Compound 047, 3-[4-(2-cyclopentylethyloxy)-3-(naphthalen-2-yl)phenyl]propionic acid]	≥ 50	≥ 50	suppressed the footpad edema	≥ 50	suppressed footpad edema
O=C(O)CCc1ccc(OCCc2ccccc2F)c(-c2ccc3ccccc3c2)c1 [Compound 053, 3-{4-[2-(2-fluorophenyl)ethyloxy]-3-(naphthalen-2-yl)phenyl}propionic acid]	≥ 50	≥ 50	suppressed the footpad edema	≥ 50	suppressed footpad edema
O=C(O)CCc1ccc(OCC2CCCC2)c(-c2ccc3[nH]ccc3c2)c1 [Compound 100, 3-[4-cyclopentylmethyloxy-3-(1H-indol-5-yl)phenyl]propionic acid]	≥ 50	≥ 50	suppressed the footpad edema	≥ 50	suppressed footpad edema
Cn1ccc2cc(-c3cc(CCC(=O)O)ccc3OC3CCCC3)ccc21 [Compound 108, 3-[4-cyclopentyloxy-3-(1-methyl-1H-indol-5-yl)phenyl]propionic acid]	≥ 50	≥ 50	suppressed the footpad edema	≥ 50	suppressed footpad edema
CC(Oc1ccc(CCC(=O)O)cc1-c1ccc2[nH]ccc2c1)c1ccccc1 (stereo not drawn) [Compound 132, 3-[3-(1H-indol-5-yl)-4-(1-phenylethyloxy)phenyl]propionic acid]	≥ 50	≥ 50	suppressed the footpad edema	≥ 50	suppressed footpad edema
O=C(O)CCc1ccc(OCc2cccc(Cl)c2Cl)c(-c2ccc3[nH]ccc3c2)c1 [Compound 160, 3-[4-(2,3-dichlorophenylmethyloxy)-3-(1H-indol-5-yl)phenyl]propionic acid]	≥ 50	≥ 50	suppressed the footpad edema	≥ 50	
O=C(O)CCc1ccc(OCc2ccc(Cl)c(Cl)c2)c(-c2ccc3[nH]ccc3c2)c1 [Compound 166, 3-[4-(3,4-dichlorophenylmethyloxy)-3-(1H-indol-5-yl)phenyl]propionic acid]	≥ 50	≥ 50	suppressed the footpad edema	≥ 50	
O=C(O)CCc1ccc(OCc2cccc3ccccc23)c(-c2ccc3[nH]ccc3c2)c1 [Compound 190, 3-{3-(1H-indol-5-yl)-4-[(naphthalen-1-yl)methyloxy]phenyl}propionic acid]	≥ 50	≥ 50	suppressed the footpad edema	≥ 50	
O=C(O)CCc1ccc(OCCc2ccccc2C(F)(F)F)c(-c2ccc3[nH]ccc3c2)c1 [Compound 214, 3-[3-(1H-indol-5-yl)-4-{2-[2-(trifluoromethyl)phenyl]-ethyloxy}phenyl]propionic acid]	≥ 50	≥ 50	suppressed the footpad edema	≥ 50	
O=C(O)CCc1ccc(OCCc2ccc3ccccc3c2)c(-c2ccc3[nH]ccc3c2)c1 [Compound 217, 3-{4-[2-(naphthalen-2-yl)ethyloxy]-3-(1H-indol-5-yl)phenyl}propionic acid]	≥ 50	≥ 50	suppressed the footpad edema	≥ 50	

From patent US6867320B2, “Substituted phenylalkanoic acid derivatives and use thereof” (Asahi Kasei Pharma Corporation, priority 2002, dated 2005)
